Common to all, as to type: cell-based
For one test, the system named is MOLT-4 cells. The test is described as follows: CTG (CellTiter-Glo) cell viability assay, MOLT-4. As to conditions: Homo sapiens, MOLT-4, 72 h, MOLT-4, 3 day; read-out: CTG Cell Viability Assay - MOLT-4 3 day: Average external-IC50. Summed up: (§1)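 Cells seeded at 10,000 per well, then exposed to a 9-point 1:3 dilution series from 10 µM top concentration (0.2% DMSO) for 3 days at 37 °C, 5% CO2. Viability measured by CellTiter-Glo luminescence; IC50 from a three-parameter logistic fit.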

In the next test the target is T1, BCL-XL (Homo sapiens, UniProt Q07817).
T1 construct: BCL-XL degradation results in MOLT-4 cells for compounds of the invention; endogenous in cells; host or cells: MOLT-4
Description: BCL-XL degradation assay in MOLT-4 cells (ELISA, 6 h). The settings on record: for DC50: read-out: Bcl-xL ELISA in MOLT-4 degradation 6 h: External Abs-DC50.

In a further test the test system is Caki-2 cells. Description: CTG (CellTiter-Glo) cell viability assay, Caki-2. The settings on record: Homo sapiens, CAKI-2, 72 h, Caki-2, 3-day; read-out: CTG Chempartner/PHA- Caki-2 3-day: Average external-IC50. Summed up:
as §1

Where only a bound is given, the exact number is not on record here.

T1 sequence (Q07817 whole entry): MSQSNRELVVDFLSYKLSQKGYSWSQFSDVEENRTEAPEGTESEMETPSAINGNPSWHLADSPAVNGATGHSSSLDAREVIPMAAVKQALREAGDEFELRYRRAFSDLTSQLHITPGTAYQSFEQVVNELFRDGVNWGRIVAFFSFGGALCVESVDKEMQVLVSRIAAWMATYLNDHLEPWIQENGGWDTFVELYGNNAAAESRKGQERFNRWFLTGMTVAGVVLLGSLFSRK

Take `Cc1ncsc1-c1ccc(CNC(=O)[C@@H]2C[C@@H](O)CN2C(=O)[C@@H](NC(=O)C2(F)CC2)C(C)(C)C)c(OCCN2CCN(CC[C@H](CSc3ccccc3)Nc3ccc(S(=O)(=O)NC(=O)c4ccc(N5CCC6(CC5)CC(N5CCC[C@H]5c5ccccc5C5CC5)C6)cc4)cc3S(=O)(=O)C(F)(F)F)CC2)c1` [I-31, (2S,4R)—N-(2-(2-(4-((R)-3-((4-(N-(4-(2-((S)-2-(2-cyclopropylphenyl)pyrolidine-1-yl)-7-azaspiro[3.5]nonan-7-yl)benzoyl)sulfamoyl)-2-((trifluoromethyl)sulfonyl)phenyl)amino)-4-(phenylthio)butyl)piperazin-1-yl)ethoxy)-4 (4-methylthiazol-5-yl)benzyl)-1-((S)-2-(1-fluorocyclopropanecarboxamido)-3,3-dimethylbutanoyl)-4-hydroxypyrrolidine-2-carboxamide]: in the test on MOLT-4 cells, the IC50 is 100 to 1000 nM. Moreover, on BCL-XL, the greatest degradation seen (Dmax) is 50 to 75% and the DC50 lay within 10 to 100 nM. For the same compound, in the test on Caki-2 cells, the IC50 is under 5000 nM.
For `Cc1ncsc1-c1ccc([C@H](C)NC(=O)[C@@H]2C[C@@H](O)CN2C(=O)[C@@H](NC(=O)CCCCCC(=O)N2CCN(CC[C@H](CSc3ccccc3)Nc3ccc(S(=O)(=O)NC(=O)c4ccc(N5CCN(Cc6ccccc6-c6ccc(Cl)cc6)CC5)cc4)cc3[N+](=O)[O-])CC2)C(C)(C)C)cc1` [I-35], the IC50 in the test with MOLT-4 cells was over 3000 nM; with Caki-2 cells, over 30000 nM. On BCL-XL, this compound gave a maximal degradation (Dmax) of over 75%. Also, the DC50 at BCL-XL was in the range of 10 to 100 nM.
On the same counts, the results for `Cc1ncsc1-c1ccc([C@H](C)NC(=O)[C@@H]2C[C@@H](O)CN2C(=O)[C@@H](NC(=O)CCCCCC(=O)N2CCN(CC[C@H](CSc3ccccc3)Nc3ccc(S(=O)(=O)NC(=O)c4ccc(N5CCOCC5)cc4)cc3S(=O)(=O)C(F)(F)F)CC2)C(C)(C)C)cc1` [I-36] are over 3000 nM, over 30000 nM, under 50% and 500 to 1000 nM.
In the case of `Cc1ncsc1-c1ccc([C@H](C)NC(=O)[C@@H]2C[C@@H](O)CN2C(=O)[C@@H](NC(=O)CCCCCC(=O)N2CCN(CC[C@H](CSc3ccccc3)Nc3ccc(S(=O)(=O)NC(=O)c4ccc(N5CC6CC6C5)cc4)cc3S(=O)(=O)C(F)(F)F)CC2)C(C)(C)C)cc1` (some centres unmarked) [I-37], in the test on MOLT-4 cells, the IC50 was over 3000 nM. Besides, on BCL-XL, the Dmax was under 50% and the DC50 is 500 to 1000 nM. For the same compound, the IC50 in the test with Caki-2 cells was over 30000 nM.
On the same counts, the results for `Cc1ncsc1-c1ccc([C@H](C)NC(=O)[C@@H]2C[C@@H](O)CN2C(=O)[C@@H](NC(=O)CCCCCC(=O)N2CCN(CC[C@H](CSc3ccccc3)Nc3ccc(S(=O)(=O)NC(=O)c4ccc(NC5CCOCC5)cc4)cc3S(=O)(=O)C(F)(F)F)CC2)C(C)(C)C)cc1` [I-39] are over 3000 nM, 50 to 75%, 100 to 500 nM and over 30000 nM.
As to `Cc1ncsc1-c1ccc([C@H](C)NC(=O)[C@@H]2C[C@@H](O)CN2C(=O)[C@@H](NC(=O)CCCCCC(=O)N2CCN(CC[C@H](CSc3ccccc3)Nc3ccc(S(=O)(=O)NC(=O)c4ccc(N5CC6CCC5C6)cc4)cc3S(=O)(=O)C(F)(F)F)CC2)C(C)(C)C)cc1` (some centres unmarked) [I-40], the IC50 with MOLT-4 cells was over 3000 nM; in the test on Caki-2 cells, over 30000 nM. Moreover, the Dmax on BCL-XL is 50 to 75%. Moreover, at BCL-XL, the DC50 was in the range of 500 to 1000 nM.
The corresponding values for `Cc1ncsc1-c1ccc([C@H](C)NC(=O)[C@@H]2C[C@@H](O)CN2C(=O)[C@@H](NC(=O)CCCCCC(=O)N2CCN(CC[C@H](CSc3ccccc3)Nc3ccc(S(=O)(=O)NC(=O)c4ccc(N5CCCN(C)CC5)cc4)cc3S(=O)(=O)C(F)(F)F)CC2)C(C)(C)C)cc1` [I-41] are over 3000 nM, over 30000 nM, under 50% and 500 to 1000 nM.
Consider `Cc1ncsc1-c1ccc([C@H](C)NC(=O)[C@@H]2C[C@@H](O)CN2C(=O)[C@@H](NC(=O)CCCCCC(=O)N2CCN(CC[C@H](CSc3ccccc3)Nc3ccc(S(=O)(=O)NC(=O)c4ccc(N5CCN(CC6=C(c7ccc(Cl)cc7)CC(C)(C)CC6)CC5)cc4)cc3S(=O)(=O)C(F)(F)F)CC2)C(C)(C)C)cc1` [I-42], for which, in the test with MOLT-4 cells, the IC50 was under 100 nM. Besides, at BCL-XL, the Dmax was over 75% and the DC50 was in the range of 10 to 100 nM. For the same compound, the IC50 with Caki-2 cells was 5000 to 10000 nM.
On to `Cc1ncsc1-c1ccc([C@H](C)NC(=O)[C@@H]2C[C@@H](O)CN2C(=O)[C@@H](NC(=O)CCCCCC(=O)N2CCN(CCCNc3ccc(S(=O)(=O)NC(=O)c4ccc(N5CCN(Cc6ccccc6-c6ccc(Cl)cc6)CC5)cc4Oc4cnc5[nH]ccc5c4)cc3S(=O)(=O)C(F)(F)F)CC2)C(C)(C)C)cc1` [I-51], for which, in the test with MOLT-4 cells, the IC50 was 1000 to 3000 nM. In addition, on BCL-XL, the Dmax lay in the range of 50 to 75% and the DC50 is 100 to 500 nM. For the same compound, in the test on Caki-2 cells, the IC50 was over 30000 nM.
As to `Cc1ncsc1-c1ccc([C@H](C)NC(=O)[C@@H]2C[C@@H](O)CN2C(=O)[C@@H](NC(=O)CCCCCC(=O)N2CCN(CCCNc3ccc(S(=O)(=O)NC(=O)c4ccc(N5CCN(CC6=C(c7ccc(Cl)cc7)CCC(C)(C)C6)CC5)cc4Oc4cnc5[nH]ccc5c4)cc3S(=O)(=O)C(F)(F)F)CC2)C(C)(C)C)cc1` [I-52], in the test with MOLT-4 cells, the IC50 is 100 to 1000 nM. Besides, on BCL-XL, the Dmax is 50 to 75% and the DC50 was in the range of 100 to 500 nM. For the same compound, the IC50 in the test with Caki-2 cells is over 30000 nM.
For the compound `Cc1ncsc1-c1ccc([C@H](C)NC(=O)[C@@H]2C[C@@H](O)CN2C(=O)[C@@H](NC(=O)CCCCC(=O)N2CCN(CCCNc3ccc(S(=O)(=O)NC(=O)c4ccc(N5CCN(CC6=C(c7ccc(Cl)cc7)CC(C)(C)CC6)CC5)cc4Oc4cnc5[nH]ccc5c4)cc3S(=O)(=O)C(F)(F)F)CC2)C(C)(C)C)cc1` [I-63], the IC50 is 1000 to 3000 nM in the test on MOLT-4 cells and over 30000 nM in the test on Caki-2 cells. Also, the maximal degradation (Dmax) at BCL-XL was in the range of 50 to 75%. In addition, the half-maximal degradation concentration (DC50) at BCL-XL was 100 to 500 nM.
Take `Cc1ncsc1-c1ccc([C@H](C)NC(=O)[C@@H]2C[C@@H](O)CN2C(=O)[C@@H](NC(=O)CCCCCCC(=O)N2CCN(C[C@]3(C)CCC(c4ccc(Cl)cc4)=C(CN4CCN(c5ccc(C(=O)NS(=O)(=O)c6ccc(NCCCN7CCOCC7)c(S(=O)(=O)C(F)(F)F)c6)c(Oc6cnc7[nH]ccc7c6)c5)CC4)C3)CC2)C(C)(C)C)cc1` [I-65]: the IC50 in the test with MOLT-4 cells is under 100 nM. Also, on BCL-XL, the maximal degradation (Dmax) lay within 50 to 75% and the DC50 fell in the range of 10 to 100 nM. In addition, the IC50 in the test with Caki-2 cells is 10000 to 30000 nM.
For the compound `Cc1ncsc1-c1ccc([C@H](C)NC(=O)[C@@H]2C[C@@H](O)CN2C(=O)[C@@H](NC(=O)CCCCCN(C)CCCNc2ccc(S(=O)(=O)NC(=O)c3ccc(N4CCC([C@H](O)c5ccccc5-c5ccc(Cl)cc5)CC4)cc3Oc3cnc4[nH]ccc4c3)cc2S(=O)(=O)C(F)(F)F)C(C)(C)C)cc1` [I-67], the IC50 in the test with MOLT-4 cells was over 3000 nM; in the test on Caki-2 cells, over 30000 nM. The greatest degradation seen (Dmax) on BCL-XL fell in the range of 50 to 75%. For the same compound, on BCL-XL, the DC50 is 500 to 1000 nM.
The corresponding values for `Cc1ncsc1-c1ccc([C@H](C)NC(=O)[C@@H]2C[C@@H](O)CN2C(=O)[C@@H](NC(=O)CCCCCN(C)CCCNc2ccc(S(=O)(=O)NC(=O)c3ccc(N4CCN(CC5=C(c6ccc(Cl)cc6)CC(C)(C)CC5)CC4)cc3Oc3cnc4[nH]ccc4c3)cc2S(=O)(=O)C(F)(F)F)C(C)(C)C)cc1` [I-69] are over 3000 nM, over 30000 nM, under 50% and 500 to 1000 nM.

Values taken from US20260092057A1, “BCL-XL/BCL-2 DEGRADERS AND USES THEREOF” (Kymera Therapeutics, Inc., priority 2022, published 2026).
